Read-outs that look alike come from different tables or passages of the source.
What was measured:
[1] = Pharmacokinetic study of 435(S) and other representative compounds in chimps after oral dosing (Example 40); type: in vivo; settings: species named in label measured in plasma
Protocol: 435(S) and representative compounds 121(S), 137(S), 421(S) and 437(S) were separately dissolved in warm (65° C.) water at a concentration [[of 10 mg/mL]]. The same protocol described for Example 39 was then followed for each representative compound.

[2] = Stability of compounds in rat whole blood (Example 35); type: in vitro ADME; settings: 5 μM, 37° C., 2 hours, FIG. 3
Protocol: This study was performed to evaluate the stability of the title compounds in rat whole blood. Because the ketone (or keto-compound; either pentoxifylline or 409) and its corresponding M-1 alcohol metabolite interconvert, levels of these components were measured after either the keto-compound was added to the blood or the M-1 was added. In other words, in some tests the keto-compound was the starting test compound and in other tests an M-1 metabolite was the starting test compound.
Fresh rat whole blood was obtained from ViviSource Laboratories, Waltham, Mass. Stock solutions (7.5 millimolar (mM)) of test compounds were prepared in dimethyl sulfoxide (DMSO). The 7.5 mM stock solutions were diluted to 500 micromolar (μM) in acetonitrile (ACN). To 990 microliters (μL) of blood pre-warmed to 37° C. for 7 minutes was added 10 μl, of 500 μM test compound to a final concentration of 5 μM. The test compounds were pentoxifylline, (S)-M1 metabolite of pentoxifylline, (R)-M1 metabolite of pentoxifylline, Compound 409, Compound 435(S), and Compound 435(R). The latter two test compounds are deuterated (S)-M1 and (R)-M1 metabolites, respectively, of Compound 409. The reaction mixture was incubated at 37° C. Aliquots (50 μL) were removed at 0 min, 5 min, 15 min, 30 min, 1 hour and 2 hours following the addition of test compound and added to 96-well plates containing 150 μL of ice cold acetonitrile with an internal standard to stop the reaction. The plates were stored at −20° C. for 20 minutes after which 100 μL of 50% acetonitrile/water was added to the wells of the plate prior to centrifugation to pellet precipitated proteins. A 200-μL aliquot of each supernatant was transferred to another 96-well plate and analyzed by LC-MS/MS using an Applied Bio-systems API 4000 mass spectrometer for amounts of the administered compound and its specific metabolite listed in Table 11 below.
The results of this study are depicted in FIGS. 2 and 3.

[3] = Pharmacokinetic study of pentoxifylline and Compound 435(S) in chimps after intravenous dosing (Example 38); type: in vivo; settings: for AUC(0-inf): IV infusion 75 mg each of pentoxifylline and 435(S) over 10 minutes, species named in label measured in plasma; for % Difference in AUC0-∞ Female (deuterated vs nondeuterated species) / % Difference in AUC0-∞ Male (deuterated vs nondeuterated species): intravenous
Protocol: Pentoxifylline and Compound 435(S) were separately dissolved in warm (65° C.) saline at a concentration at 10 mg/mL. A 1:1 mixture of the two compounds was then prepared containing a final concentration of 5 mg/mL of each compound and the mixture was then sterile filtered through a 0.2-μm filter.
Two chimps (one male and one female) were used in each of the oral and intravenous studies. Animals were fasted overnight prior to administration of compounds. All animals were sedated with ketamine (approximately 10 mg/kg) and/or telazol (approximately 5 mg/kg) prior to dosing. Intravenous administration was achieved by IV infusion of 75 mg of each compound (15 mL total dosing solution) over 10 minutes. Oral administration was achieved by oral gavage of a single 75 mg dose of each compound (15 mL total dosing solution). Blood samples (6 mL) were collected from the dosed chimps at various times prior to and after dosing. For intravenous administrations blood samples were collected at 0 min (preinfusion), 5 min, 9.5 min (immediately before the end of the infusion), then 6, 15, 30 and 45 min, and 1, 2, 4, 6, 8, 10 and 12 hr after the infusion is stopped. For oral administrations, blood samples were collected at 0 min (predose), 15 and 30 min, and 1, 1.5, 2, 4, 6, 8, 10 and 12 hr postdose.
Blood samples were placed in tubes containing sodium heparin, mixed and stored on ice until centrifuged. Within 30 minutes of collection, plasma was isolated by centrifuging the blood samples and removing an aliquot (200 μL) of the resulting plasma. Each 200-μL aliquot of plasma was mixed with 400 μL acetonitrile and stored at −70° C. until further analysis by LC-MS/MS using an Applied Bio-systems API 4000 mass spectrometer.
The analysis of all samples by LC-MS/MS was performed as described above for the rat plasma samples in Example 37.

[4] = Compound stability in human liver microsomes (Example 36); type: in vitro ADME; settings: 30 minutes
Protocol: Example 36 is similar to Example 35 in design, except that human liver microsomes were used instead of rat whole blood to study the metabolism of the compounds.
Human liver microsomes (20 mg/mL) were obtained from Xenotech, LLC (Lenexa, Kans.). β-nicotinamide adenine dinucleotide phosphate, reduced form (NADPH), magnesium chloride (MgCl2), and dimethyl sulfoxide (DMSO) were purchased from Sigma-Aldrich.
Stock solutions containing 7.5 mM of test compounds (pentoxifylline, (S)-M1 metabolite, (R)-M1 metabolite, Compound 409, Compound 435(S), and Compound 435(R)) were prepared in DMSO. The 7.5-mM stock solutions were diluted to 250 μM in acetonitrile (ACN). The human liver microsomes were diluted to 2.5 mg/mL in 0.1 M potassium phosphate buffer, pH 7.4, containing 3 mM MgCl2. The diluted microsomes were added to wells of a 96-well deep-well polypropylene plate in triplicate. 10 μL of the 250 μM test compound was added to the microsomes and the mixture was pre-warmed to 37° C. for 10 minutes. Reactions were initiated by addition of pre-warmed NADPH solution. The final reaction volume was 0.5 mL and contained 2.0 mg/mL human liver microsomes, 5 μM test compound, and 2 mM NADPH in 0.1M potassium phosphate buffer, pH 7.4, and 3 mM MgCl2. The reaction mixtures were incubated at 37° C., and 50-μL aliquots were removed at 0, 5, 10, 20, and 30 minutes and added to shallow-well 96-well plates which contained 50 μL of ice-cold acetonitrile with internal standard to stop the reactions. The plates were stored at 4° C. for 20 minutes after which 100 μL of water was added to the wells of the plate before centrifugation to pellet precipitated proteins. Supernatants were transferred to another 96-well plate and analyzed for the amount of the administered compound and its specific metabolite (listed in Table 11 above) by LC-MS/MS using an Applied Bio-systems API 4000 mass spectrometer.
The results of this study are depicted in FIGS. 4 and 5. […]

[5] = female, plasma, po, 65 mg, Table 17 i): female chimp, 435(S) and 121(S), read-out: AUC0-12 Female
[6] = female, plasma, po, 65 mg, Table 17 ii): female chimp, 435(S) and 137(S), read-out: AUC0-12 Female
[7] = female, plasma, po, 65 mg, Table 17 iii): female chimp, 435(S) and 421(S), read-out: AUC0-12 Female
[8] = female, plasma, po, 65 mg, Table 17 iv): female chimp, 435(S) and 437(S), read-out: AUC0-12 Female
[9] = male, plasma, po, 65 mg, Table 17 i): male chimp, 435(S) and 121(S), read-out: AUC0-12 Male
[10] = male, plasma, po, 65 mg, Table 17 ii): male chimp, 435(S) and 137(S), read-out: AUC0-12 Male
[11] = male, plasma, po, 65 mg, Table 17 iii): male chimp, 435(S) and 421(S), read-out: AUC0-12 Male
[12] = male, plasma, po, 65 mg, Table 17 iv): male chimp, 435(S) and 437(S), read-out: AUC0-12 Male
[13] = female chimp, read-out: AUC0-∞ Female
[14] = male chimp, read-out: AUC0-∞ Male

AUC(0-t) [1, 5]	AUC(0-t) [1, 6]	AUC(0-t) [1, 7]	AUC(0-t) [1, 8]	AUC(0-t) [1, 9]	AUC(0-t) [1, 10]	AUC(0-t) [1, 11]	AUC(0-t) [1, 12]	Structure (SMILES)	Keto-compound (pentoxifylline or Compound 409) formed from M-1 alcohol [2]	AUC(0-inf) [3, 13]	% Difference in AUC0-∞ Female (deuterated vs nondeuterated species) ([3]; female chimp)	AUC(0-inf) [3, 14]	% Difference in AUC0-∞ Male (deuterated vs nondeuterated species) ([3]; male chimp)	Keto-compound (pentoxifylline or Compound 409) formed from M-1 alcohol ([4]; human liver microsomes 2.0 mg/mL, 5 μM, NADPH, FIG. 5 columns C and D)	More pentoxifylline produced from (S)-M1 than Compound 409 produced from Compound 435 (S) ([4]; human liver microsomes)
133 ng·h/mL	243 ng·h/mL	947 ng·h/mL	1140 ng·h/mL	354 ng·h/mL	100 ng·h/mL	881 ng·h/mL	686 ng·h/mL	[2H]c1nc2c(c(=O)n(CCCC([2H])([2H])[C@@]([2H])(O)C([2H])([2H])[2H])c(=O)n2C)n1C([2H])([2H])[2H] [Compound 435(S), (S)-8-d1-1-(4,4,5,6,6,6-d6-5-Hydroxyhexyl)-3-methyl-7-(methyl-d3)-1H-purine-2,6(3H,7H)-dione]	not detected	1210 ng·h/mL	+84%	2520 ng·h/mL	+61%		
670 ng·h/mL	754 ng·h/mL	376 ng·h/mL	306 ng·h/mL	585 ng·h/mL	719 ng·h/mL	500 ng·h/mL	562 ng·h/mL	[2H]c1nc2c(c(=O)n(CCCC(=O)O)c(=O)n2C)n1C([2H])([2H])[2H] [Deuterated M5 (M5a)]		632 ng·h/mL	−60%	428 ng·h/mL	−65%		
								C[C@H](O)CCCCn1c(=O)c2c(ncn2C)n(C)c1=O [(S)-M1, reference compound]	appreciable amount of pentoxifylline present					significant amount of pentoxifylline present	Approximately 30%
